In test [1] the target is T1, EGF-R Kinase (recombinant enzyme) (Homo sapiens, UniProt P00533).
T1 construct: containing the EGFR cDNA encoding amino acids 645 - 1186 preceded by Met-Ala-(His)6; made in house; host or cells: Sf9 insect cells infected with recombinant baculovirus vHcEGFR52
In words: Inhibition of Epidermal Growth Factor Receptor Kinase (EGF-R) using recombinant enzyme, RR-SRC peptide phosphorylation with 33P-ATP. Type of test: biochemical. As to conditions: for inhibition at 0.5 µM: 0.5 µM concentration of test compound, read-out: % Inhibition @ 0.5. How it is done:
Representative test compounds were evaluated for their ability to inhibit the phosphorylation of the tyrosine residue of a peptide substrate catalyzed by the enzyme epidermal growth factor receptor kinase. […] The enzyme used in this assay is the His-tagged cytoplasmic domain of EGFR. A recombinant baculovirus (vHcEGFR52) was constructed containing the EGFR cDNA encoding amino acids 645 - 1186 preceded by Met-Ala-(His)6 . Sf9 cells in 100 mm plates were infected at an moi of 10 pfu/cell and cells were harvested 48 h post infection. A cytoplasmic extract was prepared using 1% Triton X-100 and applied to Ni-NTA column. After washing the column with 20 mM imidazole, HcEGFR was eluted with 250 mM imidazole (in 50 mM Na2HPO4, pH 8.0, 300 mM NaCl). Fractions collected were dialyzed against 10 mM HEPES, pH 7.0, 50 mM NaCl, 10% glycerol, 1ug/mL antipain and leupeptin and 0.1 mM Pefabloc SC. The protein was frozen in dry ice/methanol and stored -70° C.
Test compounds were made into 10 mg/mL stock solutions in 100% dimethylsulfoxide (DMSO). Prior to experiment, stock solutions were diluted to 500 uM with 100% DMSO and then serially diluted to the desired concentration with HEPES buffer (30 mM HEPES pH 7.4).
For the enzyme reaction, 10 uL of each inhibitor (at various concentrations) were added to each well of a 96-well plate. To this was added 3 uL of enzyme (1:10 dilution in 10mM HEPES, pH 7.4 for final conc. of 1:120). This was allowed to sit for 10 min on ice and was followed by the addition of 5 ul peptide (80 uM final conc.), 10ul of 4X Buffer (Table A), 0.25 uL ^33P-ATP and 12 uL H2O. The reaction was allowed to run for 90 min at room temperature and was followed by spotting the entire volume on to precut P81 filter papers. The filter discs were washed 2X with 0.5% phosphoric acid and radioactivity was measured using a liquid scintillation counter. Table A
The IC50 is the concentration of test compound needed to reduce the total amount of phosphorylated substrate by 50%. The % inhibition of the test compound was determined for at least three different concentrations and the IC50 value was evaluated from the dose response curve. […] CPM(control) is in units of counts per minute and was a number expressing the amount of radiolabeled ATP (γ-^33P) incorporated into the RR-SRC peptide substrate by the enzyme after 90 minutes at room temperature in the absence of test compound as measured by liquid scintillation counting. The CPM values were corrected for the background counts produced by ATP in the absence of the enzymatic reaction. Where it was possible to determine an IC50 value, this is reported in TABLE 1 otherwise the % inhibition at 0.5 µM concentration of test compound is shown in TABLE 1.

For test [2], the target named is Mitogen Activated Protein Kinase (Mek-Erk) (Homo sapiens, UniProt P28482+Q02750). In words: Mitogen Activated Protein Kinase (MAPK) coupled MEK 1 / ERK2 assay. Type of test: biochemical. As to conditions: separate entries = evaluated more than one time. How it is done:
To evaluate inhibitors of the MAP (mitogen activated protein) kinase a two component coupled standard pharmacological test procedure, which measures phosphorylation of a serine/threonine residue in an appropriate sequence in the substrate in the presence and absence of a putative inhibitor, was used. Recombinant human MEK 1 (MAPKK) was first used to activate recombinant human ERK2 (MAPK) and the activated MAPK (ERK) was incubated with substrate (MBP peptide or MYC peptide) in the presence of ATP, Mg^+2 and radiolabeled ^33P ATP. The phosphorylated peptide was captured on a P 81 phosphocellulose filter (paper filter or embedded in microtiter plate) washed and counted by scintillation methods.
The peptide substrates used in the assay are MBP, peptide substrate ([…]), or synthetic Myc substrate, ([…]•5 TFA. The recombinant enzymes used were prepared as GST fusion proteins of human ERK 2 and human MEK 1. Inhibitor samples were prepared as 10X stocks in 10% DMSO and an appropriate aliquot was used to deliver either 10 ug/ml for a single point screening dose or 100, 10, 1, and 0.1 uM final concentration for a dose response curve. Final DMSO concentrations were less than or equal to 1%.
The reaction was run as follows in 50 mM Tris kinase buffer, pH 7.4 in a reaction volume of 50 ul. The appropriate volume of kinase buffer and inhibitor sample was added to the tube. Appropriate dilution of enzyme was delivered to give 2-5 ug recombinant MAPK (Erk ) per tube. The inhibitor was incubated with MAPK (Erk) for 30 min at 0 deg. C. Recombinant Mek (MAPKK) ( 0.5-2.5 ug) or fully activated Mek (0.05-0.1 units) was added to activate the Erk and incubated for 30 min at 30° C. Then substrate and gamma ^33P ATP was were added to give a final concentration of 0.5- 1 mM MBPP or 250-500 uM Myc; 0.2-0.5 uCi gamma ^33P ATP/tube; 50 µM ATP final concentration. Samples were incubated at 30°C for 30 minutes and the reaction was stopped by adding 25 µl of ice cold 10 %TCA. After samples were chilled on ice for 30 min, 20 µl of sample was transferred onto P 81 phosphocellulose filter paper or appropriate MTP with embedded P 81 filter. Filter papers or MTP were washed 2 times with a large volume of 1% acetic acid, then 2 times with water. The filters or MTP were briefly air dried before addition of scintillant and samples were counted in the appropriate scintillation counter set up for reading ^33P isotope. Samples included a positive control (activated enzyme plus substrate); a no enzyme control; a no substrate control; samples with different concentrations of putative inhibitor; and samples with reference inhibitors (other active compounds or non-specific inhibitors such as staurosporine or K252 B).
The raw data was captured as cpm. Sample replicates were averaged and corrected for background count. Mean cpm data was tabulated by group and % inhibition by a test compound was calculated as (corrected cpm control- corrected. cpm sample/control) X 100 = % inhibition. If several concentrations of inhibitor were tested, IC50 values (the concentration which gives 50% inhibition) were determined graphically from the dose response curve for % inhibition or by an appropriate computer program. The results obtained for representative compounds of this invention are listed in TABLE 3 where there may be separate entries for the same compound; this is an indication that the compound was evaluated more than one time.

Another test deals with A2780DDP. In words: Inhibition of Cancer Cell Growth as Measured by Cell Number (Sulforhodamine B). Type of test: cell-based, Human. As to conditions: 48 hours exposure. How it is done:
(§1) After 48 hours exposure to test compounds, cells were fixed with trichloroacetic acid, and stained with Sulforhodamine B. After washing with trichloroacetic acid, bound dye was solubilized in 10 mM Tris base and optical density was determined using a plate reader. Under conditions of the assay the optical density is proportional to the number of cells in the well. […] The test procedure is described in details by Philip Skehan et. al, J.Natl. Canc. […] The Her2Neu cell line is a 3T3 line that has bbeen transfected with Her2 receptor kinase.

The next test concerns A2780S. The description is as above. Type of test: cell-based, Human. The following applies: 48 hours exposure. How it is done: as §1
The next test deals with A431. Described as above. In kind it is cell-based, Human. The following applies: 48 hours exposure. Here is the method:
as §1

A further test has as its system MDA435. The description is as above. In kind it is cell-based, Human. The following applies: 48 hours exposure. How it is done:
as §1

For another test, the system named is SKBR3. Described as above. Type of test: cell-based, Human. How it is done: as §1
The test system of another test is SW620. The description is as above. Type of test: cell-based, Human. Here is the method: as §1
The mark [3] stands for this setting: recombinant His-tagged cytoplasmic domain of EGFR, RR-SRC peptide, 90 min at room temperature, read-out: IC50.
Setting [4] is: Homo sapiens, 48 h, read-out: IC50.
Where [5] appears, read: Homo sapiens, A-431, 48 h, read-out: IC50.
Where [6] appears, read: Homo sapiens, MDA435, 48 h, read-out: IC50.
The mark [7] stands for this setting: Homo sapiens, SK-BR-3, 48 hours exposure, read-out: IC50.
[8] abbreviates: Homo sapiens, SW-620, 48 hours exposure, read-out: IC50.

Structures are written as SMILES. pIC50: −log10 of the molar value. ≈ marks a conversion by molar mass, not a printed value. Where “and” joins values, the source holds several entries; their conditions need not be identical. Equal values may be shown once. Read-outs that look alike come from different tables or passages of the source.

T1 sequence (P00533 669-1210): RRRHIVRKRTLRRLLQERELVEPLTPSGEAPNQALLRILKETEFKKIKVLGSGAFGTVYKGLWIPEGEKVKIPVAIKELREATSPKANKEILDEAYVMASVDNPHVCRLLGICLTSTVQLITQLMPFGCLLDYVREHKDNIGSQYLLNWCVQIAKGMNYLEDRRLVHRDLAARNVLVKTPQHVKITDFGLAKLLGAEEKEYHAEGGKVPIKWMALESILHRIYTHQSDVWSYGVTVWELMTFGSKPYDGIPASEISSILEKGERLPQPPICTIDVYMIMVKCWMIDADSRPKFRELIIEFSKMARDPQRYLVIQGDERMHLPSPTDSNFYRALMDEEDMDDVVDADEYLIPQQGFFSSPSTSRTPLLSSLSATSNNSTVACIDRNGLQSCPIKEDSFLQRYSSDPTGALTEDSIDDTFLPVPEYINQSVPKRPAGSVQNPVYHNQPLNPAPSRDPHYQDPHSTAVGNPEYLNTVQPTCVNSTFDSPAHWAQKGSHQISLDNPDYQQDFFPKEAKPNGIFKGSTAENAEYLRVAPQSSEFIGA
Chain of Mitogen Activated Protein Kinase (Mek-Erk) (P28482 2-360): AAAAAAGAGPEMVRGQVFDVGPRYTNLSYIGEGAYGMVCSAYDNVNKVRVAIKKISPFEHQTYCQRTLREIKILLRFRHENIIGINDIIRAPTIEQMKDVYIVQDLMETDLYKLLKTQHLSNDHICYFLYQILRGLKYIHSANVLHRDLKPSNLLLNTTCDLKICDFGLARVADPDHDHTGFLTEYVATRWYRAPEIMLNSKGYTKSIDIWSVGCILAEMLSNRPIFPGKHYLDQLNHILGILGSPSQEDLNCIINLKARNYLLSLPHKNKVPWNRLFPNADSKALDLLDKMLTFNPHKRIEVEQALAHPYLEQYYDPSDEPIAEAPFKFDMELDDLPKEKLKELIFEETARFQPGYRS
Chain of Mitogen Activated Protein Kinase (Mek-Erk) (Q02750 whole entry): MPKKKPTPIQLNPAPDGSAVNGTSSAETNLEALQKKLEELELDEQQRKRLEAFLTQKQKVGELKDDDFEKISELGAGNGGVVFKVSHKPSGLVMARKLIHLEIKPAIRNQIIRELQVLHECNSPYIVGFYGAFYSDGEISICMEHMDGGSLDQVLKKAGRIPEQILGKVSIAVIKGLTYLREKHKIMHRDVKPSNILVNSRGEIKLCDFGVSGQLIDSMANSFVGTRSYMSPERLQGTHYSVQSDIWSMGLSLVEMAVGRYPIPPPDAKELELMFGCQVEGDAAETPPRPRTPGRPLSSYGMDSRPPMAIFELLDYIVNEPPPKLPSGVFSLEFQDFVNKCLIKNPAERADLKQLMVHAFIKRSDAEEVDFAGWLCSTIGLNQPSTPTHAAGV

By pIC50 is commonly meant the negative decadic logarithm of the IC50, by convention in mol/L. In the case of `N#Cc1cnc2ncc([N+](=O)[O-])cc2c1Nc1ccc(F)c(Cl)c1` [Example 25, 4-(3-Chloro-4-fluoro-phenylamino)-6-nitro-[1.8]naphthyridine-3-carbonitrile], the pIC50 in test [1] (setting [3]) is 7.00.
The term inhibition denotes the relative decrease from the control value, in per cent. What is called IC50 is the concentration needed to halve the response being measured. Take `CN(C)CC=CC(=O)Nc1cnc2ncc(C#N)c(Nc3cccc(Br)c3)c2c1` [Example 30, 4-Dimethylamino-but-2-enoic acid [5-(3-bromo-phenylamino)-6-cyano-[1.8]naphthyridin-3-yl]-amide]: the inhibition at 0.5 µM in test [1] was found to be 47%. The pIC50 is 6.10 in test [1] (setting [3]) and 4.30 in test [2] (read-out: IC50). Further, the IC50 is 4 µg/mL (≈ 8.87 µM) with A2780DDP (setting [4]); 1.77 µg/mL (≈ 3.92 µM) with A2780S (setting [4]); 2.76 µg/mL (≈ 6.12 µM) with A431 (setting [5]); greater than 5 µg/mL with MDA435 (setting [6]); 4.83 µg/mL (≈ 10.7 µM) with SKBR3 (setting [7]); greater than 5 µg/mL in the test with SW620 (setting [8]).
As to `CC#CC(=O)Nc1cnc2ncc(C#N)c(Nc3ccc(F)c(Cl)c3)c2c1` [Example 27, But-2-ynoic acid [5-(3-chloro-4-fluoro-phenylamino)-6-cyano-[1.8]-naphthyridin-3-yl]-amide], in test [2], the pIC50 was less than 4.00.
For the compound `N#Cc1cnc2cnc(N)cc2c1Nc1cccc(Br)c1` [Example 59, 6-Amino-4-(3-bromo-phenylamino)-[1.7]naphthyridine-3-carbonitrile], in test [1] (setting [3]), the pIC50 is 9.15. In addition, the IC50 with A2780DDP (setting [4]) is 3.1 µg/mL (≈ 9.11 µM); in the test with A2780S (setting [4]) it was 3.5 µg/mL (≈ 10.3 µM); in the test on A431 (setting [5]), 0.4 µg/mL (≈ 1.18 µM); in the test on MDA435 (setting [6]), greater than 5 µg/mL; with SKBR3 (setting [7]), 4.1 µg/mL (≈ 12.1 µM); in the test with SW620 (setting [8]), greater than 5 µg/mL.
On to `N#Cc1cnc2cnc(F)cc2c1Nc1cccc(Br)c1` [Example 57, 4-(3-Bromo-phenylamino)-6-fluoro-[1.7]naphthyridine-3-carbonitrile], for which the pIC50 in test [1] (setting [3]) was 8.10; in test [2] it was less than 4.00. The IC50 in the test with A2780DDP (setting [4]) is greater than 5 µg/mL; in the test on A2780S (setting [4]) it was 3.33 µg/mL (≈ 9.7 µM); in the test with A431 (setting [5]) it was 3.92 µg/mL (≈ 11.4 µM); in the test with MDA435 (setting [6]), greater than 5 µg/mL; in the test with SKBR3 (setting [7]), greater than 5 µg/mL; in the test with SW620 (setting [8]), greater than 5 µg/mL.
For the compound `N#Cc1cnc2cccnc2c1Nc1cccc(Br)c1` [Example 37, 4-(3-Bromophenylamino)-[1.5]naphthyridine-3-carbonitrile], the negative logarithm of the IC50 (pIC50) in test [2] (read-out: IC50) was less than 4.00.
`N#Cc1cnc2ccc(N)nc2c1Nc1cccc(Br)c1` [Example 49, 6-Amino-4-(3-bromo-phenylamino)-[1.5]naphthyridine-3-carbonitrile] showed a pIC50 in test [2] of 4.60.
Take `C=CC(=O)Nc1cnc2ncc(C#N)c(Nc3cccc(Br)c3)c2c1` [Example 23, N-[5-(3-Bromo-phenylamino)-6-cyano-[1.8]naphthyridin-3-yl]-acrylamide]: the negative-log IC50 (pIC50) was 8.15 in test [1]; < 4.00 and 4.00 in test [2] (read-out: IC50).
For the compound `C[Si](C)(C)C#Cc1cc2c(Nc3cccc(Br)c3)c(C#N)cnc2cn1` [Example 85, 4-(3-Bromo-phenylamino)-6-trimethylsilanylethynyl-[1.7]naphthyridine-3-carbonitrile], the IC50 stood at 2.969 µg/mL (≈ 7.05 µM) in the test with A2780DDP; 2.344 µg/mL (≈ 5.56 µM) with A2780S; 3.056 µg/mL (≈ 7.25 µM) in the test with A431; 4.203 µg/mL (≈ 9.97 µM) with MDA435; 3.591 µg/mL (≈ 8.52 µM) in the test with SKBR3 (48 hours exposure); 4.724 µg/mL (≈ 11.2 µM) with SW620 (48 hours exposure).
With `N#Cc1cnc2ncc([N+](=O)[O-])cc2c1Nc1cccc(Br)c1` [Example 21, 4-(3-Bromo-phenylamino)-6-nitro-[1.8]naphthyridine-3-carbonitrile], in test [1] (setting [3]), the pIC50 is 8.52.
Take `N#Cc1cnc2ncc(N)cc2c1Nc1cccc(Br)c1` [Example 22, 6-Amino-4-(3-bromo-phenylamino)-[1.8]naphthyridine-3-carbonitrile]: the pIC50 in test [1] (setting [3]) is 7.30; in test [2] it was less than 4.00.
As to `CCOc1ccc2ncc(C#N)c(Nc3cccc(Br)c3)c2n1` [Example 35, 4-(3-Bromo-phenylamino)-6-ethoxy-[1.5]naphthyridine-3-carbonitrile], the inhibition at 0.5 µM in test [1] is 9%. For the same compound, the pIC50 in test [1] (setting [3]) is less than 5.00; in test [2], less than 4.00.
Regarding `N#Cc1cnc2ncc(NC(=O)CCl)cc2c1Nc1cccc(Br)c1` [Example 28, N-[5-(3-Bromo-phenylamino)-6-cyano-[1.8]naphthyridin-3-yl]-2-chloro-acetamide], the pIC50 in test [2] (read-out: IC50) was 5.22.
On the same count and under the same terms, then `N#Cc1cnc2ncc(N)cc2c1Nc1ccc(F)c(Cl)c1` [Example 26, 6-Amino-4-(3-chloro-4-fluoro-phenylamino)-[1.8]naphthyridine-3-carbonitrile], with less than 4.00.

Values taken from patent EP1171440B1, “SUBSTITUTED-3-CYANO-[1.7],[1.5], AND [1.8]-NAPHTHYRIDINE INHIBITORS OF TYROSINE KINASES” (Wyeth Holdings Corporation, priority 1999, dated 2000).
